Data published in patent US20240174622A1, “COMPOUND AND RADIOACTIVE LABELING COMPOUND” (NIHON MEDI-PHYSICS CO., LTD., priority 2021, published 2024).

Columns and labels:
[1] = tested on: LNCaP tumor-transplanted mouse; assay: Internal radioactivity distribution using LNCaP tumor-transplanted mouse; assay type: in vivo
Experimental: (§1) The animal test was performed in compliance with the guidelines of Kyoto University Animal Experiment Committee. Male CB17/IcrJcl-Prkdc^scid mice were purchased from CLEA Japan, Inc. The animals were kept under 12 h/12 h, day/night cycle conditions and fed ad libitum with food and water. LNCaP cells (1.0×10^7 cells/mouse) or PC-3 cells (1.0×10^7 cells/mouse) were suspended in a mixture of PBS and Matrigel manufactured by Corning Life Sciences (1:1, 150 μL) and the suspension was subcutaneously transplanted to the right shoulder of mice under isoflurane anesthesia. Thereafter, the mice were kept for 40 to 60 days.
LNCaP or PC-3 tumor-implanted mice were administered saline solutions (185 kBq, 100 μL) of [^111In]In-PSMA-DA1 or [^111In]In-PSMA-DB from the tail vein (n=3 each). Mice were euthanized 1, 4, 24, 48, 96, and 192 hours after administration. Thereafter, blood and each organ were recovered, and the mass and radioactivity of the organs were measured.
The percentage (% ID) of the radioactivity amount to the administered radioactivity amount (injected dose) is shown as the value (% ID/g) divided by the blood mass or the organ mass (g).
LNCaP tumor-implanted mice prepared by the same method as in Example 1-1 were administered a saline solution (241 kBq/100 μL) of [^111In]In-PtDA from the tail vein (n=3). Mice were euthanized 1, 24, and 48 hours after administration. Thereafter, blood and each organ were recovered, and the mass and radioactivity of the organs were measured.
LNCaP tumor-implanted mice prepared by the same method as in Example 1-1 were administered a saline solution (259 kBq/100 μL each) of each of the radiolabeled compounds in Examples 3-1 to 3-3 or Comparative Examples 2-1 to 2-2 from the tail vein (n=2 to 3). Mice were euthanized 1, 4, 24, 48, 96, and 192 hours after administration. Thereafter, blood and each organ were recovered, and the mass and radioactivity of the organs were measured.
as §1, with “LNCaP cells (4.3×10^6 cells/mouse) or” for “LNCaP cells (1.0×10^7 cells/mouse) or”, “PC-3 cells (3.3×10^6 cells/mouse) were” for “PC-3 cells (1.0×10^7 cells/mouse) were”, “shoulder of CB17/IcrJcl-Prkdc^scid mice under” for “shoulder of mice under”
Mice were euthanized 1, 4, 24, 48, 96, and 192 hours after administration. Thereafter, blood and each organ were recovered, and the mass and radioactivity of the organs were measured.
The results are shown in Table 12 (Mean value±standard deviation, n=3).

[2] = molecular target: human serum albumin (HSA) (Homo sapiens, UniProt P02768); assay: Evaluation of binding to albumin (HSA solution, PBS control); details: left to stand in HSA solution (45 mg/mL)
Experimental: Thereafter, the reaction liquids were added to a spin column (Sephadex G-100; manufactured by Cytiva), and centrifuged at 1500×g at 4° C. for 2 minutes. After separation, the radioactivity for each of the column and the eluate was measured with a gamma counter.
When a compound to be evaluated binds to albumin to form a composite, the compound passes through the column because of the increased molecular size.
As in Examples described above, PBS and human albumin were used to evaluate binding to albumin.
Thereafter, the reaction liquid was added to a spin column (Sephadex G-50; manufactured by Cytiva), and centrifuged at 1500×g at 4° C. for 2 minutes. After separation, the radioactivity of the column and the eluate was measured with a gamma counter.

Sequence of human serum albumin (HSA) (P02768 25-609): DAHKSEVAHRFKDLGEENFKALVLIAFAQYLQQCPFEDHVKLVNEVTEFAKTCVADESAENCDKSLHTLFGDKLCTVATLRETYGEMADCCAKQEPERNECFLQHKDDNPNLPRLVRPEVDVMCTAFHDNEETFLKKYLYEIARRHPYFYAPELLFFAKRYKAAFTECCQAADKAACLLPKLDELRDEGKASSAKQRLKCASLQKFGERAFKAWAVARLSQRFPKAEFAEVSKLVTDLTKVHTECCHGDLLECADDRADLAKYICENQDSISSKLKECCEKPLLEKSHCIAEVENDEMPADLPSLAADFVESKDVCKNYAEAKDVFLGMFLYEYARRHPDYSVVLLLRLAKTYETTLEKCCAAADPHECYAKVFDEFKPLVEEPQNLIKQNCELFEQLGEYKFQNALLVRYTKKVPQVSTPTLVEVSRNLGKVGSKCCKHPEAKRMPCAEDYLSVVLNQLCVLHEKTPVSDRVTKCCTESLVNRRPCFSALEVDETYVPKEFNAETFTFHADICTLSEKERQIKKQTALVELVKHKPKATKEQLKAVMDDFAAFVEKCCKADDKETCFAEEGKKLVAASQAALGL

Blood ([1]; 1 h after administration): 0.48 ± 0.09 % ID/g
Brain ([1]; 1 h after administration): 0.02 ± 0.00 % ID/g
Heart ([1]; 1 h after administration): 0.32 ± 0.08 % ID/g
Intestine ([1]; 1 h after administration): 0.40 ± 0.13 % ID/g
Kidney ([1]; 1 h after administration): 322 ± 42.8 % ID/g
LNCaP Tumor ([1]; 1 h after administration): 9.72 ± 1.65 % ID/g
Liver ([1]; 1 h after administration): 0.36 ± 0.13 % ID/g
Lung ([1]; 1 h after administration): 0.99 ± 0.22 % ID/g
Muscle ([1]; 1 h after administration): 0.20 ± 0.01 % ID/g
Pancreas ([1]; 1 h after administration): 0.62 ± 0.19 % ID/g
Spleen ([1]; 1 h after administration): 10.9 ± 5.59 % ID/g
Stomach (% ID) ([1]; 1 h after administration): 0.08 ± 0.01 % ID
Blood ([1]; 4 h after administration): 0.21 ± 0.18 % ID/g
Brain ([1]; 4 h after administration): 0.02 ± 0.01 % ID/g
Heart ([1]; 4 h after administration): 0.18 ± 0.03 % ID/g
Intestine ([1]; 4 h after administration): 3.50 ± 1.21 % ID/g
Kidney ([1]; 4 h after administration): 112 ± 54.6 % ID/g
LNCaP Tumor ([1]; 4 h after administration): 4.73 ± 0.40 % ID/g
Liver ([1]; 4 h after administration): 0.13 ± 0.02 % ID/g
Lung ([1]; 4 h after administration): 0.23 ± 0.10 % ID/g
Muscle ([1]; 4 h after administration): 0.10 ± 0.02 % ID/g
Pancreas ([1]; 4 h after administration): 0.24 ± 0.07 % ID/g
Spleen ([1]; 4 h after administration): 3.55 ± 1.75 % ID/g
Stomach (% ID) ([1]; 4 h after administration): 0.37 ± 0.22 % ID
Blood ([1]; 24 h after administration): 0.02 % ID/g
Brain ([1]; 24 h after administration): 0.04 ± 0.04 % ID/g
Heart ([1]; 24 h after administration): 0.04 ± 0.01 % ID/g
Intestine ([1]; 24 h after administration): 0.27 ± 0.08 % ID/g
Kidney ([1]; 24 h after administration): 24.9 ± 10.9 % ID/g
LNCaP Tumor ([1]; 24 h after administration): 2.00 ± 0.61 % ID/g
Liver ([1]; 24 h after administration): 0.06 ± 0.01 % ID/g
Lung ([1]; 24 h after administration): 0.13 ± 0.06 % ID/g
Muscle ([1]; 24 h after administration): 0.01 ± 0.01 % ID/g
Pancreas ([1]; 24 h after administration): 0.12 ± 0.03 % ID/g
Spleen ([1]; 24 h after administration): 2.48 ± 1.44 % ID/g
Stomach (% ID) ([1]; 24 h after administration): 0.03 ± 0.01 % ID
Blood ([1]; 48 h after administration): 0.00 ± 0.00 % ID/g
Brain ([1]; 48 h after administration): 0.01 ± 0.00 % ID/g
Heart ([1]; 48 h after administration): 0.02 ± 0.03 % ID/g
Intestine ([1]; 48 h after administration): 0.52 ± 0.33 % ID/g
Kidney ([1]; 48 h after administration): 7.48 ± 1.23 % ID/g
LNCaP Tumor ([1]; 48 h after administration): 0.58 ± 0.11 % ID/g
Liver ([1]; 48 h after administration): 0.04 ± 0.01 % ID/g
Lung ([1]; 48 h after administration): 0.06 ± 0.02 % ID/g
Muscle ([1]; 48 h after administration): 0.01 ± 0.02 % ID/g
Pancreas ([1]; 48 h after administration): 0.05 ± 0.01 % ID/g
Spleen ([1]; 48 h after administration): 1.64 ± 0.53 % ID/g
Stomach (% ID) ([1]; 48 h after administration): 0.07 ± 0.04 % ID
Blood ([1]; 96 h after administration): 0.02 ± 0.01 % ID/g
Brain ([1]; 96 h after administration): 0.01 ± 0.00 % ID/g
Heart ([1]; 96 h after administration): 0.03 ± 0.00 % ID/g
Intestine ([1]; 96 h after administration): 0.13 ± 0.05 % ID/g
Kidney ([1]; 96 h after administration): 7.24 ± 3.00 % ID/g
LNCaP Tumor ([1]; 96 h after administration): 0.72 ± 0.11 % ID/g
Liver ([1]; 96 h after administration): 0.08 ± 0.02 % ID/g
Lung ([1]; 96 h after administration): 0.09 ± 0.03 % ID/g
Muscle ([1]; 96 h after administration): 0.03 ± 0.04 % ID/g
Pancreas ([1]; 96 h after administration): 0.04 ± 0.00 % ID/g
Spleen ([1]; 96 h after administration): 2.06 ± 0.88 % ID/g
Stomach (% ID) ([1]; 96 h after administration): 0.03 ± 0.01 % ID
Blood ([1]; 192 h after administration): 0.00 % ID/g
Brain ([1]; 192 h after administration): 0.01 % ID/g
Heart ([1]; 192 h after administration): 0.01 % ID/g
Intestine ([1]; 192 h after administration): 0.02 % ID/g
Kidney ([1]; 192 h after administration): 2.16 % ID/g
LNCaP Tumor ([1]; 192 h after administration): 0.36 % ID/g
Liver ([1]; 192 h after administration): 0.05 % ID/g
Lung ([1]; 192 h after administration): 0.04 % ID/g
Muscle ([1]; 192 h after administration): 0.02 % ID/g
Pancreas ([1]; 192 h after administration): 0.05 % ID/g
Spleen ([1]; 192 h after administration): 0.85 % ID/g
Stomach (% ID) ([1]; 192 h after administration): 0.01 % ID
radioactivity in the eluate (in words) [2]: low
Structure (SMILES): O=C([O-])CN(Cc1cccc(C(=O)[O-])n1)C[C@H](Cc1ccc(NC(=O)CCCCCNC(=O)CCC(=O)NCCCC[C@H](NC(=O)N[C@@H](CCC(=O)O)C(=O)O)C(=O)O)cc1)N(CC(=O)[O-])Cc1cccc(C(=O)[O-])n1.[111In+3] [[^111In]In-Octapa-1, reference compound]
